Source: patent publication US20150290105A1, “COMPOSITION COMPRISING SYRINGARESINOL FOR IMPROVING THE SKIN” (AMOREPACIFIC CORPORATION, priority 2011, published 2015)

Assays:
[1] = Skin wrinkle formation after UVB in hairless mouse; type: in vivo, hairless mice (SKH: HR-1); settings: UVB 180 mJ/cm^2
Protocol: 30-week-old female hairless mice (SKH: HR-1) weighing 25-39 g were purchased from Charles River Laboratories (Wilmington, Mass., USA). The mice were accustomed to the laboratory environment for a week and then grouped into normal groups and test substance-treated groups, with 5 mice per each group. The mice were allowed free access to water and feed under the condition of 12-hour light/dark cycles, 23.2° C. and 55.10% humidity.
For the test substance-treated groups, a patch of 1% syringaresinol dissolved in a solvent (1,3-butylene glycol:ethanol=7:3) was applied 2 times for 2 days or 200 mg/kg syringaresinol was orally administered. The control groups were treated in the same way using the solvent of the same amount instead of syringaresinol. The syringaresinol-applied group, syringaresinol oral administration group and control groups were exposed to UVB of 180 mJ/cm^2. Before and after the UV radiation, skin wrinkles on the exposed part were taken with replica and measured using the Visiometer system (C+K).
Change (%)=[(Tdi−Tdo)/(Tdo)]×100 [Equation 4]
Tdi: value measured after UV radiation
Tdo: value measured before UV radiation

[2] = Keratin reducing effect on human skin (Charm View); type: in vivo
Protocol: In order to investigate whether syringaresinol can reduce the keratin of skin, syringaresinol of the same concentration as in Test Example 6 was applied on the inside of the lower arms of 50 male and female adults in their 20s and 30s and without skin diseases. 24 hours later, the reduced amount of keratin was measuring using Charm View (Moritex, Japan). The initial amount of skin keratin prior to application of the test substance measured with Charm View under a constant-temperature (24° C.), constant-humidity (40%) condition was used as a reference value, and the change in the amount of keratin was measured 24 hours later.

COc1cc(C2OCC3C(c4cc(OC)c(O)c(OC)c4)OCC23)cc(OC)c1O (stereo not shown) [Syringaresinol, syringaresinol]
Increase of skin wrinkles (Change %) ([1]; application of 1% patch, control 230±35%): 121±35%
Increase of skin wrinkles (Change %) ([1]; oral administration 200 mg/kg, control 224±45%): 123±25%
Amount of skin keratin, 24 hours later ([2]; 1% applied on lower arm, 24 hours): 11.9
Amount of skin keratin, Before application ([2]; reference value, 24° C., 40% humidity): 20.3
